The record followed here is patent US6313111A, “Substituted 6H-1,3,4-thiadiazine-2-amines, the use thereof as anaesthetising, cardiovascular and hypometabolic agents, and pharmaceutical composition containing them” (priority 1998, dated 2001).

The experiment is described as follows: rectal (body) temperature of mice measured with medicinal electrothermometer TREM-1. The experiment is classed as in vivo, mice of the BALB line. Here is the method: In all cases tests were carried out on mice of the BALB line of 3-4 month age. […] In the case of water-soluble compounds, aqueous solutions of the test compounds were injected intraperitoneally (i.p.), while water-insoluble compounds were introduced orally (p.o.).
Rectal temperature changes (absolute magnitues in ° C.) were measured using a medicinal electrothermometer TREM-1 (Table 1). The rate of oxygen consumption was monitored by measuring concentration of oxygen in a closed testing unit with optic-acoustic gas analyser MN 5130. The data on oxygen consumption are given in percents relative to the starting content of oxygen taken as 100%. (Table 2).
Rectal temperature of mice was followed in dynamics after 5, 15, 30, 60, 120, 180, 240, 300, and 360 minutes (Table 3). […] The same decrease in temperature at 190 mg/kg dosage was reached after 15 minutes; in 1.5 hours it reached 22-25° C. and maintained this level over the next 5 hours, that is 13-17° C. below the initial value. After one day, body temperature was restored to the value of 94-96% of initial.

Setting [1] is: i.p., 0 min, mg/kg: cpd 1 190.0, cpd 2 178.0, cpd 5 190.0, cpd 6 160.0.
Where [2] appears, read: i.p., 30 min, mg/kg: cpd 1 190.0, cpd 2 178.0, cpd 5 190.0, cpd 6 160.0.
Where [3] appears, read: i.p., 60 min, mg/kg: cpd 1 190.0, cpd 2 178.0, cpd 5 190.0, cpd 6 160.0.
[4] abbreviates: i.p., 90 min, mg/kg: cpd 1 190.0, cpd 2 178.0, cpd 6 160.0.
[5] abbreviates: i.p., 120 min, mg/kg: cpd 1 190.0, cpd 2 178.0, cpd 5 190.0, cpd 6 160.0.
Setting [6] is: i.p., 180 min, mg/kg: cpd 1 190.0, cpd 2 178.0, cpd 5 190.0, cpd 6 160.0.
Where [7] appears, read: i.p., 240 min, mg/kg: cpd 1 190.0, cpd 2 178.0, cpd 5 190.0, cpd 6 160.0.
The mark [8] stands for this setting: i.p., 300 min, mg/kg: cpd 1 190.0, cpd 2 178.0, cpd 6 160.0.
Where [9] appears, read: p.o., 0 min, mg/kg: cpd 4 437.0, cpd 5 328.0, cpd 6 407.0, cpd 8 435.0.
Setting [10] is: p.o., 30 min, mg/kg: cpd 4 437.0, cpd 5 328.0, cpd 6 407.0, cpd 8 435.0.
The mark [11] stands for this setting: p.o., 60 min, mg/kg: cpd 4 437.0, cpd 5 328.0, cpd 6 407.0, cpd 8 435.0.
Setting [12] is: p.o., 90 min, mg/kg: cpd 4 437.0, cpd 5 328.0, cpd 6 407.0.
Where [13] appears, read: p.o., 120 min, mg/kg: cpd 4 437.0, cpd 5 328.0, cpd 7 407.0, cpd 8 435.0.
The mark [14] stands for this setting: p.o., 180 min, mg/kg: cpd 4 437.0, cpd 7 407.0, cpd 8 435.0.
[15] abbreviates: p.o., 240 min, mg/kg: cpd 4 437.0, cpd 7 407.0, cpd 8 435.0.
[16] abbreviates: p.o., 300 min, mg/kg: cpd 7 407.0, cpd 8 435.0.

On to `CS(=O)(=O)O.c1ccc(C2=NN=C(N3CCOCC3)SC2)cc1` [Compound 2, 2-Morpholino-5-phenyl-6H-1,3,4-thiadiazine, mesilate], for which the body temperature came out at 38.0 °C under setting [1]; 30.1 °C under setting [2]; 26.7 °C under setting [3]; 25.5 °C under setting [4]; 26.9 °C under setting [5]; 31.0 °C under setting [6]. The body temperature by setting is: under setting [7], 35.4 °C; under setting [8], 35.4 °C.

As for `Br.Brc1cccc(C2=NN=C(N3CCOCC3)SC2)c1` [Compound 4, 2-Morpholino-5-(3-bromophenyl)-6H-1,3,4-thiadiazine, hydrobromide], the body temperature is 38.0 °C under setting [9]; 35.9 °C under setting [10]; 33.8 °C under setting [11]; 33.5 °C under setting [12]; 32.9 °C under setting [13]; 33.1 °C under setting [14]. The same compound had a body temperature under setting [15] of 32.8 °C.

Take `Br.c1ccc(C2=NN=C(N3CCSCC3)SC2)cc1` [Compound 5, 2-Thiomorpholino-5-phenyl-6H-1,3,4-thiadiazine, hydrobromide]: the body temperature by setting is: under setting [1], 38.0 °C; under setting [2], 28.0 °C; under setting [3], 27.1 °C; under setting [5], 25.0 °C; under setting [6], 23.3 °C; under setting [7], 23.6 °C. Moreover, the body temperature is, setting by setting: under setting [9], 38.0 °C; under setting [10], 27.5 °C; under setting [11], 26.0 °C; under setting [12], 24.0 °C; under setting [13], 24.0 °C.

On to `CS(=O)(=O)O.c1ccc(C2=NN=C(N3CCSCC3)SC2)cc1` [Compound 6, 2-Thiomorpholino-5-phenyl-6H-1,3,4-thiadiazine, mesilate], for which the body temperature is, setting by setting: under setting [1], 37.9 °C; under setting [2], 30.6 °C; under setting [3], 26.9 °C; under setting [4], 26.3 °C; under setting [5], 25.8 °C; under setting [6], 27.4 °C. The compound further displayed a body temperature under setting [7] of 28.9 °C; a body temperature under setting [8] of 30.9 °C; a body temperature under setting [9] of 37.7 °C; a body temperature under setting [10] of 34.0 °C; a body temperature under setting [11] of 33.4 °C; a body temperature under setting [12] of 32.6 °C.

In the case of `Br.CCOc1ccc(C2=NN=C(N3CCSCC3)SC2)cc1` [Compound 7, 2-Thiomorpholino-5-(4-ethoxyphenyl)-6H-1,3,4-thiadiazine, hydrobromide], the body temperature under setting [13] came out at 33.5 °C, the body temperature under setting [14] came out at 32.3 °C, the body temperature under setting [15] came to 30.6 °C and the body temperature under setting [16] turned out to be 30.6 °C.

As to `Br.Brc1cccc(C2=NN=C(N3CCSCC3)SC2)c1` [Compound 8, 2-Thiomorpholino-5-(3-bromophenyl)-6H-1,3,4-thiadiazine, hydrobromide], the body temperature amounted to 38.1 °C under setting [9]; 35.2 °C under setting [10]; 35.0 °C under setting [11]; 33.4 °C under setting [13]; 33.5 °C under setting [14]; 32.3 °C under setting [15]. Under setting [16], this compound had a body temperature of 33.9 °C.
